Reference: ChEMBL document CHEMBL5291721, “A preclinical secondary pharmacology resource illuminates target-adverse drug reaction associations of marketed drugs” (Nat Commun, 2023)

Legend:
Acetylcholinesterase = Acetylcholinesterase (Homo sapiens, UniProt P22303); format: functional
[1] = target: T1, 5-hydroxytryptamine receptor 2B (Homo sapiens, UniProt P41595); format: functional, cell-based
[2] = target: T1, 5-hydroxytryptamine receptor 2B; format: functional, cell-based; remark: listed apart in the source
[3] = target: T2, 5-hydroxytryptamine receptor 2C (Homo sapiens, UniProt P28335)
T2 sequence (P28335 whole entry): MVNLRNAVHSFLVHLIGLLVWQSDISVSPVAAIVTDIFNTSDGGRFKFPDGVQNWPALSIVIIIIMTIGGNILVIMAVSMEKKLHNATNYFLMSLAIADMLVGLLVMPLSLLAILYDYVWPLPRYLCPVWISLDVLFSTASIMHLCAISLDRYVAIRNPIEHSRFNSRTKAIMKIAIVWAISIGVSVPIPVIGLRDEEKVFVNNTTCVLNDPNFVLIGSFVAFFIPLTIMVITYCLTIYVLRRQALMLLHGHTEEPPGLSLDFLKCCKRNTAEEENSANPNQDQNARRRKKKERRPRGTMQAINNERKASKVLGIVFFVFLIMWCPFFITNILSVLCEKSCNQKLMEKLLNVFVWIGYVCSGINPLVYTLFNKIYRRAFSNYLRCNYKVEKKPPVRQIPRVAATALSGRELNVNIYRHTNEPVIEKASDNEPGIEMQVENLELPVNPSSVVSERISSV

[4] = target: T3, Amine oxidase [flavin-containing] A (Homo sapiens, UniProt P21397); format: functional
T3 sequence (P21397 whole entry): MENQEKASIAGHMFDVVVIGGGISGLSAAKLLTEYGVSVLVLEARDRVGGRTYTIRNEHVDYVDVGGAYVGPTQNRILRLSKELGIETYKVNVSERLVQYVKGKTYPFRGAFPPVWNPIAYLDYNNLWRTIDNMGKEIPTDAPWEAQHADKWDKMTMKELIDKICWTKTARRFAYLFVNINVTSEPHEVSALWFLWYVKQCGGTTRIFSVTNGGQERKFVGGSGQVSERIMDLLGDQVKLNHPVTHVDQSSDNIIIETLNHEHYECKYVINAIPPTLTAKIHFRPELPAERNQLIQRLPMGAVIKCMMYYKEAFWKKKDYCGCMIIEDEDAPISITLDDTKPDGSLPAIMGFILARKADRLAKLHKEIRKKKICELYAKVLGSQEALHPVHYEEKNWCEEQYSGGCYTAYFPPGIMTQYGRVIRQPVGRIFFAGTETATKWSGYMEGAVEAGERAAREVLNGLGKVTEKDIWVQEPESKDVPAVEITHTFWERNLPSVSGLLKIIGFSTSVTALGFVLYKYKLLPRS

Mu-type opioid receptor = Mu-type opioid receptor (Homo sapiens, UniProt P35372)
Sequence of Mu-type opioid receptor (P35372 whole entry): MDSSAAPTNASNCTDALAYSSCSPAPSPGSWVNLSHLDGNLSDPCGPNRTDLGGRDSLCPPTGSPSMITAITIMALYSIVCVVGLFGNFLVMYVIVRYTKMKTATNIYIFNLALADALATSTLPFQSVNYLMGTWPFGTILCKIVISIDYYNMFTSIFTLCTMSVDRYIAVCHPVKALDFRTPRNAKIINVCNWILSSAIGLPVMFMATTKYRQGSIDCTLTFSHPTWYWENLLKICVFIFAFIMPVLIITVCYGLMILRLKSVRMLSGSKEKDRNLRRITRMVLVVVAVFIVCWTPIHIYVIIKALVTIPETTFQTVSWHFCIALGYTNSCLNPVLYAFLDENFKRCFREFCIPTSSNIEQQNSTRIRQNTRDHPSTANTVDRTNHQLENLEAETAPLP

[5] = target: cGMP-inhibited 3',5'-cyclic phosphodiesterase 3A (Homo sapiens, UniProt Q14432); format: functional
Sequence of cGMP-inhibited 3',5'-cyclic phosphodiesterase 3A (Q14432 whole entry): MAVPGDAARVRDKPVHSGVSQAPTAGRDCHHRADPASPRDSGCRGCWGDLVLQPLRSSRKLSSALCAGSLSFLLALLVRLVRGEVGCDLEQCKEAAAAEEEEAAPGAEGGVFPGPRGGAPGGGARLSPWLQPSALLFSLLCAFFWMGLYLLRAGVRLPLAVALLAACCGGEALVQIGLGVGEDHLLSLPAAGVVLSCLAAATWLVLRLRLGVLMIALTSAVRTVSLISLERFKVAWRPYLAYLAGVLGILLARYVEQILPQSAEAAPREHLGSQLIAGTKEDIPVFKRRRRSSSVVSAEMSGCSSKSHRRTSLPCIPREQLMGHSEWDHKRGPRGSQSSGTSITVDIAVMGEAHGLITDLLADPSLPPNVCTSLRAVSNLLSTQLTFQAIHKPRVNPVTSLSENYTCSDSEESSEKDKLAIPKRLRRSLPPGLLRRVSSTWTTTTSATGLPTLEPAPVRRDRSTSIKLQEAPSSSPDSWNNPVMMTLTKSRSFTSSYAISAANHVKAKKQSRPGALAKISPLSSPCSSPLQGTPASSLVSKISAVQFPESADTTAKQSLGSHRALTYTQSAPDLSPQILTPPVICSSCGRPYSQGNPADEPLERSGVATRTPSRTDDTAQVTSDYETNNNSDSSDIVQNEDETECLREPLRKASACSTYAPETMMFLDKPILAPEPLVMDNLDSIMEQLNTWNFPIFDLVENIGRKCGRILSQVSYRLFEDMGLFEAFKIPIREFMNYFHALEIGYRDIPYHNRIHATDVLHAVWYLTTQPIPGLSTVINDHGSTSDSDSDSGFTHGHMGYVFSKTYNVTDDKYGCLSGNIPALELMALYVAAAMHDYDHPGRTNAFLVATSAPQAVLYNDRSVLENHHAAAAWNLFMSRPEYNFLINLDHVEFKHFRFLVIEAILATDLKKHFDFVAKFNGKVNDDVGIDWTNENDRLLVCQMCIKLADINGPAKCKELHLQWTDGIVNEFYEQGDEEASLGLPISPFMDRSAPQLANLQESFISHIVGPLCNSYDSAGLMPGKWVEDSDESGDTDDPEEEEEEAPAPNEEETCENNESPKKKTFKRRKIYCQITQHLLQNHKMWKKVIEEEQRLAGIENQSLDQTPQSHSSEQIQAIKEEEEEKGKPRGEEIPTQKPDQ

[6] = target: 3',5'-cyclic-AMP phosphodiesterase 4A (Homo sapiens, UniProt P27815); format: functional
Sequence of 3',5'-cyclic-AMP phosphodiesterase 4A (P27815 whole entry): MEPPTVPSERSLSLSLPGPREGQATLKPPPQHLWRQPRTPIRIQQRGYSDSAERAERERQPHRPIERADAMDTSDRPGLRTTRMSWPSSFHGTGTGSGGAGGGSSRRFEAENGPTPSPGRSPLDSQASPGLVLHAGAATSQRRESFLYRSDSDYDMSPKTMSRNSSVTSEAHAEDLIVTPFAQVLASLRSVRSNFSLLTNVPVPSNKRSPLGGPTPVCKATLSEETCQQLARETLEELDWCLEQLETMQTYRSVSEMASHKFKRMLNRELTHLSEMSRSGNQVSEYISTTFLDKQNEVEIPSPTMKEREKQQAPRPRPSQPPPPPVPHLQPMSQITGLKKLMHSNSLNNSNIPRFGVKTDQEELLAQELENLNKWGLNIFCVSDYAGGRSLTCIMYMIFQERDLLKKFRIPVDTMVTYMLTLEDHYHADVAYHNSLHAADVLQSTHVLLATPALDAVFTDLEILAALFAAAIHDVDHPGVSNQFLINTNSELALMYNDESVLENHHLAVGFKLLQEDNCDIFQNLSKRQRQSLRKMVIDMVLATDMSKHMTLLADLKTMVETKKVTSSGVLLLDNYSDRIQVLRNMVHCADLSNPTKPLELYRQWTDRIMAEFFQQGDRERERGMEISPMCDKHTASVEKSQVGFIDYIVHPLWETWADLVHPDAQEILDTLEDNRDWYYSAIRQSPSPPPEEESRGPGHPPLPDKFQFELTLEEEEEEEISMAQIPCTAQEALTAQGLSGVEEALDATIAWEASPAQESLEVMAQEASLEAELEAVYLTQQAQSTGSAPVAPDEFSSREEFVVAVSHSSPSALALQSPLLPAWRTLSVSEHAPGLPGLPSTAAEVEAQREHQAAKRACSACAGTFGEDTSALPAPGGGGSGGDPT

Progesterone receptor = target: T4, Progesterone receptor (Homo sapiens, UniProt P06401)
T4 sequence (P06401 whole entry): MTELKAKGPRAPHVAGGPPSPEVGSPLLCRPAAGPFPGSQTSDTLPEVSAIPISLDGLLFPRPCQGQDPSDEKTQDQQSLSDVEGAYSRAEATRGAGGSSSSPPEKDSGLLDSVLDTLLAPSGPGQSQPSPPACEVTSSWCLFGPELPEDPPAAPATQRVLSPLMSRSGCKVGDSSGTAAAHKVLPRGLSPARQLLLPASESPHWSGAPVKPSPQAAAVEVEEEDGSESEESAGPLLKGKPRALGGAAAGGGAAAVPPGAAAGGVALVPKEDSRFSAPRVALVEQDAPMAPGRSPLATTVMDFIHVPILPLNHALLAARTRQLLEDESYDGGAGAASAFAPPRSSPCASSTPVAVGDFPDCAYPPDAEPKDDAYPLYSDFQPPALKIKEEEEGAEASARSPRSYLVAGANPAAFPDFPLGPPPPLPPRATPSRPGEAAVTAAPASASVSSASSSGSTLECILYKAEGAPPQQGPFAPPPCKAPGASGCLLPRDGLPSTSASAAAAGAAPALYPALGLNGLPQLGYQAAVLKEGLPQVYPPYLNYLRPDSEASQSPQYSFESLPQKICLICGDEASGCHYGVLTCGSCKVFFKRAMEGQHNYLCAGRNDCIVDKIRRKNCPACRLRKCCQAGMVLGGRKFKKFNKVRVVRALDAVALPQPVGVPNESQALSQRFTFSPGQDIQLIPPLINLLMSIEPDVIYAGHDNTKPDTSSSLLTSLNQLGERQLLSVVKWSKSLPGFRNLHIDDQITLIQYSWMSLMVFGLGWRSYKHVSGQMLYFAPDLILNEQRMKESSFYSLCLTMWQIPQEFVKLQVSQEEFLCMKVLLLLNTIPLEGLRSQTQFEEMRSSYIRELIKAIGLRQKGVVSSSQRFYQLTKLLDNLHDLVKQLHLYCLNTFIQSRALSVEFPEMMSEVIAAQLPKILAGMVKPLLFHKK

[7] = target: Prostaglandin G/H synthase 1 (Homo sapiens, UniProt P23219); format: functional
Sequence of Prostaglandin G/H synthase 1 (P23219 whole entry): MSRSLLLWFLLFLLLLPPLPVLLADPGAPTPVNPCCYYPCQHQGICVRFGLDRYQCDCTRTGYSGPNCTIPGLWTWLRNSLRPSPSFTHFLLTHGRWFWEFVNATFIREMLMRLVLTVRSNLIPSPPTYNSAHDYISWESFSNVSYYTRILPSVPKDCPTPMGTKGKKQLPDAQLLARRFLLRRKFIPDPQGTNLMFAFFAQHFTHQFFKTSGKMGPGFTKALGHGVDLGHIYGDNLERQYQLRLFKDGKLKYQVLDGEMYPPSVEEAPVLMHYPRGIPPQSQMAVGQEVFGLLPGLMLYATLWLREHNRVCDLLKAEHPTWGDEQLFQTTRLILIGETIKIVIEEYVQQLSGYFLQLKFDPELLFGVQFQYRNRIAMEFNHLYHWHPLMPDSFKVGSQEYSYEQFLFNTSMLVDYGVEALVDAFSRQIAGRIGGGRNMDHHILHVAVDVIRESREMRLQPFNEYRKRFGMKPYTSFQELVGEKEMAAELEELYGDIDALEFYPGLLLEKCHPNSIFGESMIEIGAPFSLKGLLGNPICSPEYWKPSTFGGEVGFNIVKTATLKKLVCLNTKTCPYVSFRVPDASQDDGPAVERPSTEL

[8] = target: Sodium-dependent dopamine transporter (Homo sapiens, UniProt Q01959)
Sequence of Sodium-dependent dopamine transporter (Q01959 whole entry): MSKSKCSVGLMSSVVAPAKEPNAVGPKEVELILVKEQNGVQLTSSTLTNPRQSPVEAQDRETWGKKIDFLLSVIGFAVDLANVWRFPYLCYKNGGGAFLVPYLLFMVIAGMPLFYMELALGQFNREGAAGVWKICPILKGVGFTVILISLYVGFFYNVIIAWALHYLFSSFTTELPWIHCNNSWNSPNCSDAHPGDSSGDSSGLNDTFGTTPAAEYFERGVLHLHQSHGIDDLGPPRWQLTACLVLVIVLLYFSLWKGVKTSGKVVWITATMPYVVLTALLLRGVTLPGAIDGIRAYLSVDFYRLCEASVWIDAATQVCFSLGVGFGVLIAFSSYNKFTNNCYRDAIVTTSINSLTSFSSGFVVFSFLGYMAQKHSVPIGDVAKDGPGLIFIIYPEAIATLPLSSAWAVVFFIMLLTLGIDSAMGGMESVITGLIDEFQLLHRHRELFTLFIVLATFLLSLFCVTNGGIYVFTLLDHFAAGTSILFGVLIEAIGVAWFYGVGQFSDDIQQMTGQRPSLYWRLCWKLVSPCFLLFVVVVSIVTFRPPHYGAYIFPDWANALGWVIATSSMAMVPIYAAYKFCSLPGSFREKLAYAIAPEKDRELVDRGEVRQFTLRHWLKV
Note: assay procedure not described here.

Sequence of Acetylcholinesterase (P22303 whole entry): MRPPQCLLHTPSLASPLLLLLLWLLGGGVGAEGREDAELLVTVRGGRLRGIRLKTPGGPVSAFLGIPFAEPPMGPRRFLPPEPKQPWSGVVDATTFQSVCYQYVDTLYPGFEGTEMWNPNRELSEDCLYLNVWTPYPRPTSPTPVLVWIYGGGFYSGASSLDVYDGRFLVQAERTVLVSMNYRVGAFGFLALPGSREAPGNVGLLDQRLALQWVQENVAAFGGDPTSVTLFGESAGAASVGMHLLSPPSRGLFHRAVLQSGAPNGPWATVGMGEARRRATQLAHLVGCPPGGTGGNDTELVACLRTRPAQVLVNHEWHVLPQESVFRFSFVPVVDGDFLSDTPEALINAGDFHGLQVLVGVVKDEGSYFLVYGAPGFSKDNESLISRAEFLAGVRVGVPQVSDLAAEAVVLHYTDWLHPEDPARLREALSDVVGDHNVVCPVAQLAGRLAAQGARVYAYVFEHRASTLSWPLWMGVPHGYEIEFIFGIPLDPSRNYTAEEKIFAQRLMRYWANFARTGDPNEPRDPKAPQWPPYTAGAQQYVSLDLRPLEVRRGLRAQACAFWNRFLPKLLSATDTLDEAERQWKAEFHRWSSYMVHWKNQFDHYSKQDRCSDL
T1 sequence (P41595 whole entry): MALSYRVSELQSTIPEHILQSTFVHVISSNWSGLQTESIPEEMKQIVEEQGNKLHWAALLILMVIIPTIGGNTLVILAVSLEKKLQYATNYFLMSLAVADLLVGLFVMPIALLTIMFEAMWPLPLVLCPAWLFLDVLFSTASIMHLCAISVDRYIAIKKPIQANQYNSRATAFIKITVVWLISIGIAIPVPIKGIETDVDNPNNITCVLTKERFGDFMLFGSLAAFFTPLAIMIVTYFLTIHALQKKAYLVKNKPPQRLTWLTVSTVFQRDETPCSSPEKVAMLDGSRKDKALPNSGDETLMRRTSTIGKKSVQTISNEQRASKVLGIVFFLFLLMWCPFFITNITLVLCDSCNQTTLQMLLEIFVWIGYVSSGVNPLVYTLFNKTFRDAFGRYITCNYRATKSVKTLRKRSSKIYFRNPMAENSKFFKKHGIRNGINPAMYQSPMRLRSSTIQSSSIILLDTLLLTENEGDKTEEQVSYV

Row | SMILES | AC50 (Acetylcholinesterase) [µM] | AC50 [1] [µM] | AC50 [2] [µM] | AC50 [3] [µM] | AC50 [4] [µM] | AC50 (Mu-type opioid receptor) [µM] | AC50 [5] [µM] | AC50 [6] [µM] | AC50 (Progesterone receptor) [µM] | AC50 [7] [µM] | AC50 [8] [µM]
1 | CC(C)NC(=N)NC(=N)Nc1ccc(Cl)c(Cl)c1 [CHLORPROGUANIL] | > 30 | > 30 | > 30 | 7.9 | > 30 | 11.2 | > 30 | > 30 | > 30 | > 30 | 1.86
2 | C=N[C@@H](C(=O)N[C@@H]1C(=O)N2[C@@H]1SC(C)(C)[C@@H]2C(=O)O)c1ccccc1 [METAMPICILLIN] | > 30 | – | > 30 | – | > 30 | > 30 | > 30 | > 30 | > 30 | 9.26 | > 30
3 | O=C(NNCS(=O)(=O)O)c1ccncc1 [METHANIAZIDE] | > 30 | – | > 30 | – | > 30 | > 30 | > 30 | > 30 | > 30 | > 30 | > 30
4 | Cc1cc(=O)[nH]c(=S)[nH]1 [METHYLTHIOURACIL] | > 30 | – | > 30 | – | > 30 | > 30 | > 30 | > 30 | > 30 | 13.1 | > 30
5 | CN(C)c1ccc(O)c2c1C[C@H]1C[C@H]3[C@H](N(C)C)C(O)=C(C(N)=O)C(=O)[C@@]3(O)C(O)=C1C2=O [MINOCYCLINE] | > 30 | – | > 30 | – | > 30 | > 30 | > 30 | > 30 | > 30 | > 30 | > 30
6 | CCNC(=O)/C=C(C)/C=C/C=C(C)/C=C/c1c(C)cc(OC)c(C)c1C [MOTRETINIDE] | > 30 | – | > 30 | – | > 30 | 28.4 | > 30 | > 30 | 0.932 | 6.95 | > 10
7 | C=CC(=O)Nc1cccc(Oc2nc(Nc3ccc(N4CCN(C)CC4)cc3)nc3ccsc23)c1 [OLMUTINIB] | > 30 | – | > 30 | – | > 30 | 5.5 | > 30 | 3.19 | > 30 | > 30 | 0.0559
8 | COc1ccc2[nH]c([S+]([O-])Cc3ncc(C)c(OC)c3C)nc2c1 (stereo not drawn) [OMEPRAZOLE] | > 30 | – | > 30 | – | > 30 | 12 | > 30 | > 30 | > 30 | 5.76 | > 30
9 | CCCCC1C(=O)N(c2ccccc2)N(c2ccc(O)cc2)C1=O (stereo not drawn) [OXYPHENBUTAZONE ANHYDROUS] | > 30 | – | > 30 | – | > 30 | > 30 | > 30 | > 30 | > 30 | 7.8 | > 30
10 | O=C(O)CN(CCN(CC(=O)O)CC(=O)O)CCN(CC(=O)O)CC(=O)O [PENTETIC ACID] | > 30 | – | > 30 | – | > 30 | > 30 | > 30 | > 30 | > 30 | > 30 | 6.51
11 | Nc1cccc2c1C(=O)N(C1CCC(=O)NC1=O)C2=O (stereo not drawn) [POMALIDOMIDE] | > 30 | – | > 30 | – | > 30 | > 30 | > 30 | > 30 | > 30 | > 30 | > 30
12 | C[Se]CC[C@H](N)C(=O)O [SELENOMETHIONINE] | > 30 | – | > 30 | – | > 30 | > 30 | > 30 | > 30 | > 30 | > 30 | > 30
13 | C[N+](C)(C)CCOC(=O)CCC(=O)OCC[N+](C)(C)C [SUXAMETHONIUM] | > 30 | – | > 30 | – | > 30 | > 30 | > 30 | > 30 | > 30 | > 30 | > 30
14 | Cc1ccsc1C(=CCCN1CCC[C@@H](C(=O)O)C1)c1sccc1C [TIAGABINE] | > 30 | – | > 30 | – | > 30 | > 30 | > 30 | 23.6 | > 30 | 24.4 | > 30
15 | Cc1ccc(C(=O)c2ccc(CC(=O)O)n2C)cc1 [TOLMETIN] | > 30 | – | > 30 | – | > 30 | > 30 | > 30 | > 30 | > 30 | 0.081 | > 30
16 | Cc1ccccc1C(=O)Nc1ccc(C(=O)N2CCCC(O)c3cc(Cl)ccc32)c(C)c1 (stereo not drawn) [TOLVAPTAN] | > 30 | – | > 30 | – | > 30 | 6.71 | > 30 | > 30 | > 30 | > 30 | > 30
17 | C[C@]12C=CC(=O)C=C1CC[C@H]1[C@@H]3C[C@@H](O)[C@](O)(C(=O)CO)[C@@]3(C)C[C@H](O)[C@@]12F [TRIAMCINOLONE] | > 30 | – | > 30 | – | > 30 | > 30 | > 30 | > 30 | 19.7 | > 30 | > 30
18 | CC[C@]12CCCN3CCc4c(n(c5ccccc45)[C@@](O)(C(=O)OC)C1)[C@@H]32 [VINCAMINE] | > 30 | – | > 30 | – | > 30 | > 30 | > 30 | > 30 | > 30 | > 30 | > 30
19 | CCC1=C[C@@H]2CN(C1)Cc1c([nH]c3ccccc13)[C@@](C(=O)OC)(c1cc3c(cc1OC)N(C)[C@H]1[C@@](O)(C(=O)OC)[C@H](OC(C)=O)[C@]4(CC)C=CCN5CC[C@]31[C@@H]54)C2 [VINORELBINE] | > 30 | – | > 30 | – | > 30 | 6.76 | > 30 | > 30 | > 30 | > 30 | > 30
